# Results reported in patent publication US20180161314A1, “Methods for Treating Hyperuricemia and Related Diseases” (Ardea Biosciences, Inc., priority 2010, published 2018).
# Like-named read-outs stand apart in the source and are kept apart here.
# Test system: gout patients with hyperuricemia
# Format: in vivo
# Conditions: for Mean absolute sUA reduction / Mean sUA % change / Mean sUA level: ± SE; for % Response rate for sUA falling below 4 mg/dL / % Response rate for sUA falling below 5 mg/dL / % Response rate for sUA falling below 6 mg/dL: allopurinol 300 mg
# Method: Study Objectives • To measure the effect of drug 1, alone and in combination with allopurinol, on serum urate concentration. • To evaluate the safety and tolerability of drug 1 in combination with allopurinol.
# The study is open-label in gout patients with hyperuricemia, involving 2 panels of ˜10-12 patients per panel. The panels may be enrolled simultaneously.
# Panel 1 receives a once-daily dose of allopurinol 300 mg alone for 7 days and for an additional 7 days in combination with a once-daily dose of drug 1 400 mg. Patients then receive 7 days of a once-daily dose of drug 1 400 mg alone. Panel 2 follows the same regimen as panel 1, at doses of allopurinol 300 mg and drug 1 600 mg.
# • Day −10 to Day 28: colchicine prophylaxis; or • Day −7 to Day 28: colchicine prophylaxis (for patients not washing out from ULT) • Days 1-7: allopurinol 300 mg qd • Days 8-14: drug 1 400 mg qd+allopurinol 300 mg qd • Days 15-21: drug 1 400 mg qd
# • Day −10 to Day 28: colchicine prophylaxis; or • Day −7 to Day 28: colchicine prophylaxis (for patients not washing out from ULT) • Days 1-7: allopurinol 300 mg qd • Days 8-14: drug 1 600 mg qd+allopurinol 300 mg qd • Days 15-21: drug 1 600 mg qd
# Gout patients on a urate lowering therapy (ULT), have previously taken a ULT or who have never taken a ULT are eligible to participate. Screening procedures to determine patient eligibility are performed within approximately 14 days of the first dose of study drug (Day 1). Subjects currently on ULT wash-out for at least 10 days before Day 1, and begin colchicine (Colcry® 0.6 mg qd, URL Pharma) as prophylaxis for gout flares at the beginning of the wash-out period. Subjects not on ULT begin colchicine administration at least 7 days prior to Day 1. Patients intolerant of colchicine during the screening period are considered screen failures and not enrolled. Prophylactic administration of colchicine continues for 7 days after the last dose of study medication.
# Eligible patients report to the study center early morning on Days −1, 7, 14, and 21 (or the afternoon/evening the day before). Serial blood samples are collected on Days −1, 7, 14, and 21. Study medication is administered to each patient and taken orally every morning with approximately 240 mL of water, at approximately the same time of the morning every day, and approximately 30 minutes after finishing a full breakfast (approximately 650 Kcal and 35% fat); the breakfast is standardized on Days −1 to 21.
# Inclusion Criteria • Patient is male or post-menopausal or surgically sterile female. • Patient is 18-80 years of age. • Patient meets one or more criteria for the diagnosis of gout as per the American Rheumatism Association (ARA) Criteria for the Classification of Acute Arthritis of Primary Gout (Appendix B). • Patient sUA≥8 mg/dL at screening. • Patient willing and able to give informed consent and adhere to visit/protocol schedules • No clinically relevant abnormalities in blood pressure (BP), heart rate (HR), body temperature and respiratory rate as per Investigator's judgment.
# Subject urate serum levels are recorded, and any safety concerns assessed (by adverse events, clinical laboratory test results, vital signs, 12-lead ECGs, and physical examinations). […] Urate serum concentrations are evaluated for treatment- and/or time-dependent changes relative to baseline (Day −1), and may be expressed both in standard units (mg/dL) and as changes from baseline (e.g., percent change, absolute change, maximal change, and time or day of maximal change).
# Drug 1 was tested according to the protocol described in Example 21.
# Serum urate levels were measured and absolute and % reduction levels from baseline calculated, for Allopurinol monotherapy, Drug 1 monotherapy and Allopurinol plus Drug 1 combination.
# [1] = Drug 1 400 mg panel: allopurinol 300 mg qd days 1-7, combination days 8-14, drug 1 400 mg qd alone days 15-21
# [2] = Drug 1 600 mg panel: allopurinol 300 mg qd days 1-7, combination days 8-14, drug 1 600 mg qd alone days 15-21
compound,measurement,setting,value
"O=C(O)CSc1nnc(Br)n1-c1ccc(C2CC2)c2ccccc12 [Drug 1, Sodium 2-(5-bromo-4-(4-cyclopropylnaphthalen-1-yl)-4H-1,2,4-triazol-3-ylthio)acetate]",Mean absolute sUA reduction,[1],-3.0 ± 0.46 mg/dL
same,Mean sUA % change,[1],−30.2 ± 3.7%
same,Mean sUA level,[1],6.6 ± 0.22 mg/dL
same,% Response rate for sUA falling below 4 mg/dL,Drug 1 400 mg panel,0%
same,% Response rate for sUA falling below 5 mg/dL,Drug 1 400 mg panel,0%
same,% Response rate for sUA falling below 6 mg/dL,Drug 1 400 mg panel,20%
same,Mean absolute sUA reduction,[2],-3.3 ± 0.23 mg/dL
same,Mean sUA % change,[2],−37.2 ± 2.6%
same,Mean sUA level,[2],5.7 ± 0.41 mg/dL
same,% Response rate for sUA falling below 4 mg/dL,Drug 1 600 mg panel,0%
same,% Response rate for sUA falling below 5 mg/dL,Drug 1 600 mg panel,33%
same,% Response rate for sUA falling below 6 mg/dL,Drug 1 600 mg panel,67%
